This note sets out measurements from patent US6953786B2, “Compositions comprising plant-derived polyphenolic compounds and inhibitors of reactive oxygen species and methods of using thereof” (The Regents of the University of California, priority 2002, dated 2005).

For test [1], the system named is cytochrome c. In words: Mitochondrial cytochrome c release (Western blot). Format: cell-based, human. Particulars: Mia PACA-2, 24 hours, 100 μM, no serum. On the procedure: In order to determine the effects polyphenolic compounds have on mitochondrial cytochrome c release and apoptosis, the following assay was conducted. BSp73AS cells were cultured for 6 hours and Mia PACA-2 cells were cultured in the absence of serum or growth factors for 24 hours in the absence or presence of 100 μM of each rutin, trans-resveratrol, genistein, or quercetin. Cells were washed twice with ice-cold PBS, pH 7.2 and resuspended in extraction buffer, about 500 μl, comprising 20 mM HEPES-KOH (pH 7.0), 10 mM KCl, 1 mM NaEGTA, 2 mM MgCl2, 1 mM EDTA, 1 mM DTT, 250 mM sucrose, 1 mM PMSF and protease inhibitors cocktail as provided above. The lysate was incubated for 30 minutes on ice and then homogenized using a glass dounce (80 strokes). Nuclei were removed by centrifugation at 1,000 g for 10 minutes at 4° C. Supernatant was additionally centrifuged for 1 hour at 100,000 g and the resulting supernatant (cytosolic fraction) and pellet (mitochondrial fraction) were collected separately, subjected to SDS-PAGE, and Western blotting using an antibody against cytochrome c. The experiment was repeated twice with similar results.
In order to determine the role of the cancer cell's PTP in the effects of the polyphenolic compounds on mitochondrial function, caspase-3 activation and apoptosis, we performed the following experiments. Mia PACA-2 cells were cultured in the absence of serum or growth factors for 24 hours in the presence or absence of quercetin (100 μM), trans-resveratrol (100 μM), Z-VAD FMK (50 μM), cyclosporin A (5 μM) and/or aristolochic acid (50 μM). Cells were collected, washed with ice-cold PBS and resuspended in lysis buffer comprising 0.5% Nonidet P-40 or manufactured by the name IGEPAL CA-630, 0.5 mM EDTA, 150 mM NaCl and 50 mM Tris at pH 7.5. Cell lysates were placed for 30 minutes on a rotator at 4° C. and then centrifuged for 15 minutes at 15,000 g. Cytosolic protein extracts (supernatants) were collected, protein concentrations were determined and the extracts were aliquoted and stored at −80° C. Cytosolic extracts were subjected to SDS-PAGE and Western blot was performed with an antibody against cytochrome c. Blots were then stripped and re-probed with an antibody against tubulin to confirm equal protein loading. The experiment was repeated twice with similar results.
In order to determine the effect of a combination of trans-resveratrol and quercetin on cytochrome c release and caspase-3 activity, the following was conducted. Mia PACA-2 cells were cultured in the absence of serum or growth factors for 24 hours in the presence or absence of trans-resveratrol (25 μM), quercetin (25 μM), or the combination of trans-resveratrol (25 μM) and quercetin (25 μM). Cytosolic extracts were prepared and subject to SDS-PAGE followed by protein transfer. Immunoblot was performed with an antibody against tubulin to confirm equal protein loading.

The test system of test [2] is BSp73AS cells. In words: Mitochondrial membrane potential, DiOC6(3) retention. Format: cell-based, rat. Particulars: 6 hours (FIG. 10A). On the procedure: (§1) In order to determine the effects polyphenolic compounds have on mitochondrial membrane potential, the retention of the dye 3,3′-dihexyloxacarbocyanine (DiOC6(3)) was measured as described by Pastorino J G, et al. (1998) J Biol Chem 273:7770-7775, which is herein incorporated by reference. BSp73AS cells were cultured for 6 hours in the absence (control) or presence of 0, 12, 24, 50, and 100 μM quercetin and trans-resveratrol. The cells were loaded with 1 μM DiOC6(3) during the last 30 minutes of treatment with a polyphenolic compound (or vehicle). The cells were then collected and pelleted by centrifugation. The supernatant was removed and the pellet was washed twice with PBS by alternate centrifugation and resuspension. The pellet was then lysed by addition of 1 ml of H2O and homogenized. The concentration of DiOC6(3) was read on a Perkin-Elmer LS-5 fluorescence spectrometer at 488 nm excitation and 500 nm emission. An aliquot of the cells was used for determining the DiOC6(3) fluorescence that was retained by the cells.

The test system of test [3] is Mia PACA-2 cells. The test is described as above. Format: cell-based, human. On the procedure:
as §1
Mia PACA-2 cells were cultured for 72 hours in the presence of serum and trans-resveratrol or genistein in the presence or absence of DPI or Tiron. Mitochondrial membrane potential was measured as described above.

Test [4] has as its system NF-κB. In words: NF-κB DNA binding activity (EMSA / gel shift). Format: cell-based, human. Particulars: for NF-κB activation (DNA binding): Mia PACA-2, 24 hours, no serum, polyphenols 100 μM, MG-132 20 μM; for NF-κB activation caused by serum: Mia PACA-2, 72 hours, with serum, DPI 15 μM, trans-resveratrol 100 μM, genistein 100 μM, LY294002 50 μM. On the procedure: In order to determine the role of activated NF-κB in the regulation of apoptosis caused by the polyphenolic compound, the following assay was conducted. BSp73AS cells were cultured for 6 hours and Mia PACA-2 cells were cultured in the absence of serum or growth factors for 24 hours in the absence (controls) or presence of rutin, quercetin, trans-resveratrol, or genistein, each at 100 μM and 20 μM proteosome inhibitor MG-132. Nuclear proteins were isolated and analyzed for NF-κB DNA binding activity with electrophoretic mobility shift assay (EMSA).
Specifically, aliquots of nuclear extracts with equal amount of protein, about 2 to about 10 μg, were mixed in 20 μl reactions with a buffer comprising 10 mM HEPES (pH 7.6), 50 mM KCl, 0.1 mM EDTA, 1 mM DTT, 10% (vol/vol) glycerol and 3 μg poly[d (I-C)]. After aliquots were equilibrated on ice for 5 minutes, binding reactions were stared by addition of 20-60,000 counts/min (20 fM) of ^32P-labeled DNA probes and allowed to proceed for 25-30 minutes at room temperature or up to 1 hour on ice. The oligonucleotide probe
containing the κB binding motif (underlined) was annealed to the complementary oligonucleotide with a 5′-G overhang and end-labeled using Klenow DNA polymerase I. The samples were electrophoresed at room temperature in 0.5×TBE buffer (1×TBE 89 mM Tris base, 89 mM boric acid and 2 mM EDTA) on nondenaturing 4.5% polyacrylamide gel at 200 V. Gels were dried and directly analyzed in the PhosphorImager (Molecular Dynamics, Sunnyvale, Calif.). The experiment was repeated twice.
To study the effects of combinations of DPI and polyphenolic compounds on serum-induced activation of NF-κB and protection from apoptosis, the following assay was conducted. Mia PACA-2 cells were cultured for 72 hours in the presence of serum with or without 100 μM trans-resveratrol, 15 μM DPI, a combination of trans-resveratrol, 100 μM genistein, or a combination of genistein and DPI. NF-κB binding activity was measured in nuclear extracts by gel shift assay as described above.
To determine the effects of LY29400 and DPI on NF-κB activation, Mia PACA-2 cells were cultured for 72 hours in the presence of serum and 15 μM DPI with or without 50 μM LY294002. NF-κB DNA binding activity was measured in nuclear extracts by gel shift assay as described above.

Setting [5] is: Mia PACA-2, 72 hours, in the presence of serum (FIG. 11).
Setting [6] is: Mia PACA-2, no serum (FIG. 10B).

SMILES strings stand for the structures.

With `Oc1ccc(/C=C/c2cc(O)cc(O)c2)cc1` [trans-resveratrol], the “cytosolic and mitochondrial cytochrome c” value in test [1] was “caused increases in cytosolic cytochrome c and decreases in mitochondrial cytochrome c”. Besides, the mitochondrial membrane potential result is “caused dissipation of the mitochondrial membrane potential” in test [2], “no effects on mitochondrial membrane potential” in test [3] (setting [5]) and “caused dissipation of the mitochondrial membrane potential” in test [3] (setting [6]). For the same compound, the “NF-κB activation (DNA binding)” value in test [4] is on record as “inhibit NF-κB activation”. Besides, the “NF-κB activation caused by serum” value in test [4] is “not inhibited”.

With `O=c1c(-c2ccc(O)cc2)coc2cc(O)cc(O)c12` [genistein], the “cytosolic and mitochondrial cytochrome c” value in test [1] was “caused increases in cytosolic cytochrome c and decreases in mitochondrial cytochrome c”. Also, the values for the mitochondrial membrane potential result in test [2], in test [3] (setting [5]) and in test [3] (setting [6]) were “caused dissipation of the mitochondrial membrane potential”, “no effects on mitochondrial membrane potential” and “caused dissipation of the mitochondrial membrane potential”, respectively. The “NF-κB activation (DNA binding)” value in test [4] was “has no effect on NF-κB”. In test [4], the “NF-κB activation caused by serum” value is reported as “not inhibited”.

With `O=c1c(O)c(-c2ccc(O)c(O)c2)oc2cc(O)cc(O)c12` [quercetin], the “cytosolic and mitochondrial cytochrome c” value in test [1] was “caused increases in cytosolic cytochrome c and decreases in mitochondrial cytochrome c”. Besides, the mitochondrial membrane potential result in test [2] and in test [3] (setting [6]) was “caused dissipation of the mitochondrial membrane potential” each time. For the same compound, in test [4], the “NF-κB activation (DNA binding)” value is reported as “inhibit NF-κB activation”.
